Legend:
[1] = test system: ABUTH (Velvetleaf); test: Postemergence herbicidal evaluation; assay type: in vivo, Abutilon theophrasti; details: postemergence
In short: (§1)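 Rate range approx. 0.0156–0.500 kg/ha. Foliar application at 40 psi to ~2-week seedlings; surfactant 0.5% TWEEN 20 in 50/50 acetone/water. Evaluation 4–5 wk post-treatment by 0–9 visual injury score, means of replicate tests.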

[2] = test system: IPOHE (Morningglory, Ivyleaf); test: Postemergence herbicidal evaluation; assay type: in vivo, Ipomoea hederacea; details: postemergence
In short: as §1

[3] = test system: SETVI (Foxtail, Green); test: Postemergence herbicidal evaluation; assay type: in vivo, Setaria viridis; details: postemergence
In short: as §1

[4] = test system: GLXMAW (Soybean, Williams); test: Postemergence herbicidal evaluation; assay type: in vivo, Glycine max, (L.) Merr. cv Williams; details: postemergence
In short: as §1

[5] = test system: ZEAMX (Corn, Field); test: Postemergence herbicidal evaluation; assay type: in vivo, Zea mays; details: postemergence
In short: as §1

[6] = test system: ABUTH (Velvetleaf); test: Preemergence herbicidal evaluation; assay type: in vivo, Abutilon theophrasti; details: rated 4-5 weeks after treatment, rating scale 0-9
In short: (§2)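 Sown cups got a single aqueous acetone spray of test compound (roughly 0.0156–0.500 kg/ha) before seedlings emerged. Evaluation, 4–5 weeks on, used a 0–9 visual scale covering plant stand, vigor, size, malformation, chlorosis and general appearance compared with controls.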

[7] = test system: AMBEL (Ragweed, Common); test: Preemergence herbicidal evaluation; assay type: in vivo, Ambrosia artemisifolia; details: rated 4-5 weeks after treatment, rating scale 0-9
In short: as §2

[8] = test system: CASOB (Sicklepod); test: Preemergence herbicidal evaluation; assay type: in vivo, Cassia obtusifolia; details: rated 4-5 weeks after treatment, rating scale 0-9
In short: as §2

[9] = test system: IPOHE (Morningglory, Ivyleaf); test: Preemergence herbicidal evaluation; assay type: in vivo, Ipomoea hederacea; details: rated 4-5 weeks after treatment, rating scale 0-9
In short: as §2

[10] = test system: ECHCG (Barnyardgrass); test: Preemergence herbicidal evaluation; assay type: in vivo, Echinochloa crus-galli; details: rated 4-5 weeks after treatment, rating scale 0-9
In short: as §2

[11] = test system: ECHORC (Watergrass (Calif.)); test: Preemergence weed control under flooded paddy conditions; assay type: in vivo, Echinochloa oryzoides; details: rated 3-4 weeks after treatment
In short: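 Ratings on a 0-9 visual scale cover stand, vigor, malformation, size, chlorosis and overall appearance relative to a control, taken three to four weeks post-treatment. Application was into flood water over freshly sown silt loam at roughly 0.0313 to 0.500 kg/ha.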

[12] = test system: CYPSE (Flatsedge); test: as above; assay type: in vivo, Cyperus serotinus; details: rated 3-4 weeks after treatment
In short: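 Values are visual 0-9 scores against a control for a preemergence application into paddy flood water at about 0.0313 to 0.500 kg/ha. Greenhouse duration was three to four weeks.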

Cn1c(C(F)(F)F)cc(=O)n(-c2cc(N=C3SCC(=O)N3Cc3ccc(C(F)(F)F)cc3)c(Cl)cc2F)c1=O [Compound 141, 3-{4-Chloro-2-fluoro-5-{{3-[p-(trifluoromethyl)benzyl]-4-oxo-2-thiazolidinylidene}-amino}phenyl}-1-methyl-6-(trifluoromethyl)-2,4 (1H, 3H)-pyrimidinedione]
7.0: Herbicidal rating ABUTH ([1]; rate 0.0156 kg/ha) | Herbicidal rating ABUTH ([1]; rate 0.0313 kg/ha) | herbicidal effect rating, ECHORC ([11]; 0.1250 kg/ha) | herbicidal effect rating, ECHORC ([11]; 0.2500 kg/ha)
9.0: Herbicidal rating IPOHE ([2]; rate 0.0156 kg/ha) | Herbicidal rating IPOHE ([2]; rate 0.0313 kg/ha) | Herbicidal rating IPOHE ([2]; rate 0.0625 kg/ha) | Preemergence herbicidal rating ABUTH ([6]; rate 0.2500 kg/ha)
5.0: Herbicidal rating ZEAMX ([5]; rate 0.0625 kg/ha) | herbicidal effect rating, ECHORC ([11]; 0.0313 kg/ha) | herbicidal effect rating, ECHORC ([11]; 0.0625 kg/ha)
2.0: Preemergence herbicidal rating ECHCG ([10]; rate 0.2500 kg/ha)
0.0: Herbicidal rating SETVI ([3]; rate 0.0156 kg/ha) | Herbicidal rating SETVI ([3]; rate 0.0313 kg/ha) | Herbicidal rating SETVI ([3]; rate 0.0625 kg/ha) | Preemergence herbicidal rating ABUTH ([6]; rate 0.0156 kg/ha) | Preemergence herbicidal rating ABUTH ([6]; rate 0.0313 kg/ha) | Preemergence herbicidal rating ABUTH ([6]; rate 0.0625 kg/ha) | Preemergence herbicidal rating AMBEL ([7]; rate 0.0156 kg/ha) | Preemergence herbicidal rating AMBEL ([7]; rate 0.0313 kg/ha) | Preemergence herbicidal rating AMBEL ([7]; rate 0.0625 kg/ha) | Preemergence herbicidal rating AMBEL ([7]; rate 0.1250 kg/ha) | Preemergence herbicidal rating CASOB ([8]; rate 0.0156 kg/ha) | Preemergence herbicidal rating CASOB ([8]; rate 0.0313 kg/ha) | Preemergence herbicidal rating CASOB ([8]; rate 0.0625 kg/ha) | Preemergence herbicidal rating CASOB ([8]; rate 0.1250 kg/ha) | Preemergence herbicidal rating IPOHE ([9]; rate 0.0156 kg/ha) | Preemergence herbicidal rating IPOHE ([9]; rate 0.0313 kg/ha) | Preemergence herbicidal rating IPOHE ([9]; rate 0.0625 kg/ha) | Preemergence herbicidal rating IPOHE ([9]; rate 0.1250 kg/ha) | Preemergence herbicidal rating ECHCG ([10]; rate 0.0156 kg/ha) | Preemergence herbicidal rating ECHCG ([10]; rate 0.0313 kg/ha) | Preemergence herbicidal rating ECHCG ([10]; rate 0.0625 kg/ha) | Preemergence herbicidal rating ECHCG ([10]; rate 0.1250 kg/ha) | herbicidal effect rating, CYPSE ([12]; 0.0313 kg/ha) | herbicidal effect rating, CYPSE ([12]; 0.0625 kg/ha) | herbicidal effect rating, CYPSE ([12]; 0.1250 kg/ha) | herbicidal effect rating, CYPSE ([12]; 0.2500 kg/ha)
4.0: Herbicidal rating GLXMAW ([4]; rate 0.0156 kg/ha) | Herbicidal rating GLXMAW ([4]; rate 0.0313 kg/ha) | Herbicidal rating ZEAMX ([5]; rate 0.0156 kg/ha) | Preemergence herbicidal rating ABUTH ([6]; rate 0.1250 kg/ha) | Preemergence herbicidal rating AMBEL ([7]; rate 0.2500 kg/ha)
8.0: Herbicidal rating ABUTH ([1]; rate 0.0625 kg/ha)
3.0: Preemergence herbicidal rating CASOB ([8]; rate 0.2500 kg/ha) | Preemergence herbicidal rating IPOHE ([9]; rate 0.2500 kg/ha)
4.5: Herbicidal rating GLXMAW ([4]; rate 0.0625 kg/ha) | Herbicidal rating ZEAMX ([5]; rate 0.0313 kg/ha)

Reference: patent US20020137929A1, “1 - (3-heterocyclylphenyl) isothiourea, -isourea, -guanidine and -amidine herbicidal agents” (Intellectual Property Department, BASF Aktiengesellschaft, priority 1998, published 2002)
